Experimental data from ChEMBL document CHEMBL1201862, “PubChem BioAssay data set” (2004).
Values joined by “and” are separate entries in the source; they are usually repeats but may differ in a detail not shown here. Equal entries are not always repeated.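 Results reflect a 48-hour exposure of cells in 96-well plates to compound at five concentrations. Abbreviation: GI50, concentration required for 50% inhibition of growth.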 Active and inactive are the calls of the source. Cut-off read from the data, not from the text of the source: active = GI50 up to about 1.1 µM and inactive = higher.

Assays:
Experiment in all cases: DTP human tumour cell line panel, 48 h
[1] = system: ACHN
[2] = system: EKVX
[3] = system: HCC 2998
[4] = system: HCT-116
[5] = system: HL-60
[6] = system: K562
[7] = system: MCF7
[8] = system: MDA-MB-231
[9] = system: NCI-H226
[10] = system: NCI-H23
[11] = system: PC-3
[12] = system: RPMI-8226
[13] = system: SF-539
[14] = system: SK-MEL-2
[15] = system: SK-MEL-5
[16] = system: SW-620
[17] = system: UACC-257
[18] = system: UACC-62
[19] = system: UO-31
[20] = system: NCI-H522

Compound	GI50 [1]	GI50 [2]	GI50 [3]	GI50 [4]	GI50 [5]	GI50 [6]	GI50 [7]	GI50 [8]	GI50 [9]	GI50 [10]	GI50 [11]	GI50 [12]	GI50 [13]	GI50 [14]	GI50 [15]	GI50 [16]	GI50 [17]	GI50 [18]	GI50 [19]	GI50 [20]
NC(=O)N/N=C/c1ccccc1O	> 100 µM (inactive)	45 µM (inactive)	> 100 µM (inactive)	> 100 µM (inactive)	53.1 µM (inactive)	> 100 µM (inactive)	> 100 µM (inactive)	> 100 µM (inactive)	> 100 µM (inactive)	> 100 µM (inactive)	> 100 µM (inactive)	> 100 µM (inactive)	> 100 µM (inactive)	> 100 µM (inactive)	> 100 µM (inactive)	> 100 µM (inactive)	> 100 µM (inactive)	> 100 µM (inactive)	> 100 µM (inactive)	–
CC1=CC(=O)/C(=C/N2C(=O)CNC2=S)C(=O)O1	> 100 µM (inactive)	> 100 µM (inactive)	> 100 µM (inactive)	> 100 µM (inactive)	> 100 µM (inactive)	–	> 100 µM (inactive)	> 100 µM (inactive)	> 100 µM (inactive)	> 100 µM (inactive)	> 100 µM (inactive)	–	> 100 µM (inactive)	> 100 µM (inactive)	> 100 µM (inactive)	> 100 µM (inactive)	> 100 µM (inactive)	–	> 100 µM (inactive)	–
CCS(=O)(=O)c1c2cc(OC)ccc2nc2ccc(OC)cc12	> 100 µM (inactive)	> 100 µM (inactive)	> 100 µM (inactive)	> 100 µM (inactive)	> 100 µM (inactive)	> 100 µM (inactive)	> 100 µM (inactive)	> 100 µM (inactive)	> 100 µM (inactive)	> 100 µM (inactive)	> 100 µM (inactive)	–	26.5 µM (inactive)	> 100 µM (inactive)	–	> 100 µM (inactive)	> 100 µM (inactive)	> 100 µM (inactive)	> 100 µM (inactive)	> 100 µM (inactive)
O[C@H]1[C@H](O)[C@@H](O)[C@@]2(O)C[C@@H](O)[C@@H]1N2	> 100 µM (inactive)	> 100 µM (inactive)	> 100 µM (inactive)	> 100 µM (inactive)	> 100 µM (inactive)	> 100 µM (inactive)	> 100 µM (inactive)	> 100 µM (inactive)	> 100 µM (inactive)	> 100 µM (inactive)	> 100 µM (inactive)	–	> 100 µM (inactive)	–	> 100 µM (inactive)	> 100 µM (inactive)	> 100 µM (inactive)	> 100 µM (inactive)	85.7 µM (inactive)	> 100 µM (inactive)
O=C1/C(=C/c2ccc(OC(=O)c3ccc(Cl)cc3)cc2)CCC/C1=C\c1ccc(OC(=O)c2ccc(Cl)cc2)cc1	> 100 µM (inactive)	> 100 µM (inactive)	> 100 µM (inactive)	> 100 µM (inactive)	> 100 µM (inactive)	–	> 100 µM (inactive)	46.5 µM (inactive)	–	> 100 µM (inactive)	> 100 µM (inactive)	> 100 µM (inactive)	30 µM (inactive)	> 100 µM (inactive)	> 100 µM (inactive)	> 100 µM (inactive)	> 100 µM (inactive)	> 100 µM (inactive)	> 100 µM (inactive)	> 100 µM (inactive)
CCOC(=O)C(Cc1ccc(OC(=O)OC(C)(C)C)cc1)NC(=O)OC(C)(C)C (stereo not given)	74.1 µM (inactive)	> 100 µM (inactive)	30.3 µM (inactive)	78 µM (inactive)	28.2 µM (inactive)	76.4 µM (inactive)	> 100 µM (inactive)	41.6 µM (inactive)	> 100 µM (inactive)	> 100 µM (inactive)	34.5 µM (inactive)	–	44.8 µM (inactive)	> 100 µM (inactive)	> 100 µM (inactive)	34.7 µM (inactive)	21.3 µM (inactive)	> 100 µM (inactive)	54.3 µM (inactive)	> 100 µM (inactive)
CC(=O)OCC1OC(n2c(C)c(C(C)=O)c(-c3ccco3)c(C#N)c2=S)C(OC(C)=O)C(OC(C)=O)C1OC(C)=O (stereo not given)	> 100 µM (inactive)	> 100 µM (inactive)	> 100 µM (inactive)	> 100 µM (inactive)	> 100 µM (inactive)	> 100 µM (inactive) and 51.1 µM (inactive)	> 100 µM (inactive)	> 100 µM (inactive)	> 100 µM (inactive)	> 100 µM (inactive)	> 100 µM (inactive)	–	> 100 µM (inactive)	–	78.5 µM (inactive)	> 100 µM (inactive)	> 100 µM (inactive)	> 100 µM (inactive)	< 0.01 µM (active)	> 100 µM (inactive)
CCC1([N+](=O)[O-])CN(N=O)C1	> 100 µM (inactive)	> 100 µM (inactive)	–	> 100 µM (inactive)	> 100 µM (inactive)	> 100 µM (inactive)	> 100 µM (inactive)	> 100 µM (inactive)	> 100 µM (inactive)	> 100 µM (inactive)	> 100 µM (inactive)	> 100 µM (inactive)	> 100 µM (inactive)	> 100 µM (inactive)	> 100 µM (inactive)	> 100 µM (inactive)	> 100 µM (inactive)	> 100 µM (inactive)	> 100 µM (inactive)	> 100 µM (inactive)
COc1cc2c(cc1OCCCCN1CCN(CCCCOc3cc4c(cc3OC)C(=O)N3CCC[C@H]3C=N4)CC1)N=C[C@@H]1CCCN1C2=O	0.0448 µM (active)	0.281 µM (active)	–	0.0216 µM (active)	< 0.01 µM (active)	0.0199 µM (active)	< 0.0318 µM (active)	0.0378 µM (active)	< 0.01 µM (active)	< 0.0241 µM (active)	0.0873 µM (active)	< 0.0125 µM (active)	< 0.01 µM (active)	0.0389 µM (active)	0.0138 µM (active)	< 0.0119 µM (active)	0.0627 µM (active)	< 0.0105 µM (active)	0.0798 µM (active)	< 0.01 µM (active)
Nc1c(Br)cc(-c2cc(Br)c(N)c(Br)c2)cc1Br	> 100 µM (inactive)	> 100 µM (inactive)	> 100 µM (inactive)	> 100 µM (inactive)	> 100 µM (inactive)	> 100 µM (inactive)	> 100 µM (inactive)	> 100 µM (inactive)	> 100 µM (inactive)	> 100 µM (inactive)	> 100 µM (inactive)	> 100 µM (inactive)	> 100 µM (inactive)	–	> 100 µM (inactive)	> 100 µM (inactive)	> 100 µM (inactive)	> 100 µM (inactive)	> 100 µM (inactive)	> 100 µM (inactive)
C/C(=C\COP(=O)(O)OP(=O)(O)O)CC/C=C(\C)CNc1c(F)c(F)c(F)c(F)c1F	> 100 µM (inactive)	> 54.3 µM (inactive)	> 100 µM (inactive)	> 25.5 µM (inactive)	> 100 µM (inactive)	> 100 µM (inactive)	> 100 µM (inactive)	5.43 µM (inactive)	20.3 µM (inactive)	> 100 µM (inactive)	67.3 µM (inactive)	–	97.1 µM (inactive)	> 100 µM (inactive)	> 100 µM (inactive)	> 84.7 µM (inactive)	> 70.3 µM (inactive)	> 51.9 µM (inactive)	> 100 µM (inactive)	> 100 µM (inactive)
Cc1ccc(SCC(OCn2cnc3c(N)ncnc32)[C@H](C)F)cc1 (stereo not given in full)	> 100 µM (inactive)	–	> 100 µM (inactive)	> 100 µM (inactive)	> 100 µM (inactive)	–	> 100 µM (inactive)	> 100 µM (inactive)	> 100 µM (inactive)	> 100 µM (inactive)	> 100 µM (inactive)	> 100 µM (inactive)	> 100 µM (inactive)	> 100 µM (inactive)	41.4 µM (inactive)	> 100 µM (inactive)	> 100 µM (inactive)	> 100 µM (inactive)	> 100 µM (inactive)	> 100 µM (inactive)
O=c1n(CCO)nc2n1CCCN2	> 100 µM (inactive)	> 100 µM (inactive)	> 100 µM (inactive)	> 100 µM (inactive)	> 100 µM (inactive)	> 100 µM (inactive)	> 100 µM (inactive)	> 100 µM (inactive)	> 100 µM (inactive)	> 100 µM (inactive)	> 100 µM (inactive)	> 100 µM (inactive)	> 100 µM (inactive)	> 100 µM (inactive)	> 100 µM (inactive)	> 100 µM (inactive)	–	> 100 µM (inactive)	> 100 µM (inactive)	–
COc1cc2c(c(OC)c1OC)-c1ccc(SC)c(=O)cc1[C@@H](OC(C)=O)CC2	< 0.01 µM (active)	–	< 0.01 µM (active)	< 0.01 µM (active)	< 0.01 µM (active)	< 0.01 µM (active)	< 0.01 µM (active)	< 0.01 µM (active)	< 0.01 µM (active)	< 0.01 µM (active)	< 0.01 µM (active)	–	< 0.01 µM (active)	< 0.01 µM (active)	< 0.01 µM (active)	< 0.01 µM (active)	< 0.01 µM (active)	< 0.01 µM (active)	< 0.01 µM (active)	< 0.01 µM (active)
C/C(=N\Nc1nc2ccccc2o1)c1cc2ccccc2cn1	< 0.01 µM (active)	< 0.01 µM (active)	–	< 0.01 µM (active)	< 0.01 µM (active)	< 0.01 µM (active)	< 0.01 µM (active)	< 0.01 µM (active)	< 0.0208 µM (active)	< 0.0187 µM (active)	< 0.01 µM (active)	< 0.0235 µM (active)	< 0.0281 µM (active)	2.98 µM (inactive)	0.0101 µM (active)	< 0.01 µM (active)	< 0.01 µM (active)	0.0775 µM (active)	< 0.0147 µM (active)	< 0.01 µM (active)
